The test system of assay [1] is pheochromocytoma cells (PC-12). Description: Survival of pheochromocytoma cells (PC-12) exposed to H2O2. The class given is cell-based. To be noted: for survival rate: 0.1 mM H2O2 30 minutes. On the procedure:
Tests of survival of pheochromocytoma cells (PC-12) exposed to H2O2 and treated with L-carnitine or resveratrol or with the two products in combination
A culture of pheochromocytoma cells (PC-12) containing 3×10^5 N-cells/ml was exposed to 0.1 mM concentrations of H2O2 for 30 minutes. While the survival of the cells treated with H2O2 alone was approximately 45% after 24 hours, the survival of the cells treated with L-carnitine or with resveratrol was substantially greater, with survival rates of 55, 60 and 62%, respectively, for cells treated with L-carnitine, acetyl L-carnitine and propionyl L-carnitine at concentrations of 10^−8 M, and a survival rate of 69% for cells treated with resveratrol at the concentration of 10^−4 M.

The test system of assay [2] is spontaneous motility of endothelin (ET-1)-treated mice. The assay can be described thus: Spontaneous motility of mice reduced by intracerebral endothelin (ET-1). The class given is in vivo. An excerpt:
One of the effects of a vasoactive peptide and neuromodulator such as endothelin is the influence it exerts on animal behaviour in reducing the animals' motility and vestibular reactions.
In these tests, we were able to observe that the typical action of endothelin (ET-1) injected intracerebrally in mice at the dose of 1 pmol/mouse, which is to substantially reduce the animals' spontaneous motility, can be inhibited to a very significant extent by prior administration of carnitines and resveratrol, and, particularly, that the combination of these two types of substances is capable of acting synergistically, restoring the motility reduced by endothelin administration almost to normal values.
The values were observed, keeping 10 mice at a time placed in a container with a photocell and an automatic movement counter; the count was done by observing the mice for periods of 5 minutes 15 minutes after the endothelin (ET-1) injection.

In assay [3] the test system is sensory neuronal lesions induced by cisplatin. The class given is in vivo, mouse. To be noted: cisplatin-treated mice; 10 animals per group. On the procedure:
In these tests, cisplatin was used as a neuronal toxic factor, capable, particularly, of producing lesions in the sensory neurones and thus of impairing proprioceptive perception. The tests evaluated the ability of carnitines, resveratrol and combinations of these substances to restore peripheral sensory perception in the mouse impaired by injection of cisplatin. This ability was assessed by evaluating the reaction to thermal pain induced by a heated water solution in which the animals' tails were dipped according to the tail-flick test, or using the rotating bar test (Apfel S.C., Lipton R.B., Ann. Neurol., 29, 87-90, 1991).
Cisplatin was administered subcutaneously at the dose of 10 mg/kg for eight consecutive days. Over the same period the mice received injections of 100 mg/kg of carnitines and 2.5 mg/kg of resveratrol or combinations of these products.
The values observed, in fact, were 13.5 seconds in the animals treated with acetyl L-carnitine plus resveratrol and 14.4 seconds in those treated with propionyl L-carnitine plus resveratrol.

The mark [4] stands for this setting: carnitines 300 mg/kg intra-peritoneally for three days preceding and half an hour before ET-1 injection.

On to `OO` [H2O2], for which the “survival of the cells” value in assay [1] (0.1 mM H2O2 alone for 30 minutes, after 24 hours) is “approximately 45%”.

With `C[N+](C)(C)C[C@H](O)CC(=O)[O-]` [L-carnitine], the survival rate in assay [1] (carnitine at 10^−8 M) was determined as 55%. The motility reduction percentage in assay [2] (setting [4]) is given as 69.6%.

Turning to `CC(=O)O[C@H](CC(=O)[O-])C[N+](C)(C)C` [acetyl L-carnitine], the survival rate in assay [1] (carnitine at 10^−8 M) amounted to 60%. Further, the motility reduction percentage in assay [2] (setting [4]) turned out to be 65.5%.

For `CC[C@H](C)[C@H](NC(=O)[C@H](CC(=O)O)NC(=O)[C@H](CC(C)C)NC(=O)[C@H](Cc1c[nH]cn1)NC(=O)[C@@H]1CSSC[C@H](N)C(=O)N[C@@H](CO)C(=O)N[C@H]2CSSC[C@H](NC(=O)[C@H](CCC(=O)O)NC(=O)[C@H](CCCCN)NC(=O)[C@H](CC(=O)O)NC(=O)[C@H](CCSC)NC(=O)[C@H](CC(C)C)NC(=O)[C@H](CO)NC(=O)[C@H](CO)NC2=O)C(=O)N[C@@H](C(C)C)C(=O)N[C@@H](Cc2ccc(O)cc2)C(=O)N[C@@H](Cc2ccccc2)C(=O)N1)C(=O)N[C@H](C(=O)N[C@@H](Cc1c[nH]c2ccccc12)C(=O)O)[C@@H](C)CC` [endothelin], the motility reduction percentage in assay [2] (endothelin alone, 1 pmol/mouse intracerebrally, count for 5 minutes, 15 minutes after injection) amounted to 85.5%.

For `CCC(=O)O[C@H](CC(=O)[O-])C[N+](C)(C)C` [propionyl L-carnitine], the survival rate in assay [1] (carnitine at 10^−8 M) is reported as 62%. Moreover, the motility reduction percentage in assay [2] (setting [4]) is 60.3%.

`Oc1ccc(/C=C/c2cc(O)cc(O)c2)cc1` [resveratrol, trans-3,4′,5-trihydroxy-stilbene]: the survival rate in assay [1] (resveratrol at 10^−4 M) turned out to be 69%. Also, the motility reduction percentage in assay [2] (alone, resveratrol 2.5 mg/kg, ET-1 treated mice) is on record as 60.4%. Further, the “increase in equilibrium time” value in assay [3] is listed as “significant increase”.

The record behind these values is patent US6515020B1, “Combination of carnitines and resveratrol for prevention or treatment of cerebral and ageing disorders” (Sigma-Tau HealthScience S.p.A., priority 1998, dated 2003).
